According to the supplement of paper PMC10307832:

Assays:
Assay in all cases: relative viability (nuclei count vs DMSO), 5 days (fraction); higher = more cells survive
BI-2536 + Foretinib = compound: CC[C@@H]1C(=O)N(C)c2cnc(Nc3ccc(C(=O)NC4CCN(C)CC4)cc3OC)nc2N1C1CCCC1 [BI-2536] + COc1cc2c(Oc3ccc(NC(=O)C4(C(=O)Nc5ccc(F)cc5)CC4)cc3F)ccnc2cc1OCCCN1CCOCC1 [Foretinib] (partner 0.25 µM)
Summary of the method: (§1)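 The day after seeding in 1536-well plates, lung cancer cell lines were treated by pin tool with a single drug, or with a fixed anchor-drug dose together with five library-drug doses (not always all listed) in √10 steps. After 5 days, a combined fix-and-stain solution (final 0.05% Triton X-100, 1% formaldehyde, 1 ug/ml Hoechst) was added. Nuclei counted on 4× images gave relative viability as treated counts over vehicle counts, reported as the median of duplicate plates.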

BI-2536 + Pemetrexed = compound: CC[C@@H]1C(=O)N(C)c2cnc(Nc3ccc(C(=O)NC4CCN(C)CC4)cc3OC)nc2N1C1CCCC1 [BI-2536] + Nc1nc2[nH]cc(CCc3ccc(C(=O)N[C@@H](CCC(=O)O)C(=O)O)cc3)c2c(=O)[nH]1 [Pemetrexed] (partner 0.2 µM)
Summary of the method: as §1

[1] = compound: CC1CC(=O)N(C2=CN=C(N=C2N1C3CCCC3)NC4=C(C=C(C=C4)C(=O)NC5CCN(CC5)C)OC)C [NPK76-II-72-1] + CS(=O)(=O)N1CCN(Cc2cc3nc(-c4cccc5[nH]ncc45)nc(N4CCOCC4)c3s2)CC1 [Pictilisib] (partner 1 µM)
Summary of the method: as §1

BI-2536 + Phenformin = compound: CC[C@@H]1C(=O)N(C)c2cnc(Nc3ccc(C(=O)NC4CCN(C)CC4)cc3OC)nc2N1C1CCCC1 [BI-2536] + N=C(N)NC(=N)NCCc1ccccc1 [Phenformin] (partner 250 µM)
Summary of the method: as §1

For UMC-11, the relative viability (BI-2536 + Foretinib; first compound 0.01 µM) was 0.927, the relative viability (BI-2536 + Foretinib; first compound 0.03162 µM) was 0.661 and the relative viability (BI-2536 + Foretinib; first compound 0.1 µM) was 0.174. The relative viability (BI-2536 + Foretinib; first compound 0.3162 µM) was 0.19, the relative viability (BI-2536 + Foretinib; first compound 1 µM) was 0.191 and the relative viability (BI-2536 + Pemetrexed; first compound 0.01 µM) was 0.8. For the same cell line, the relative viability (BI-2536 + Pemetrexed; first compound 0.03162 µM) was 0.57, the relative viability (BI-2536 + Pemetrexed; first compound 0.1 µM) was 0.242 and the relative viability (BI-2536 + Pemetrexed; first compound 0.3162 µM) was 0.194. For the same cell line, the relative viability (BI-2536 + Pemetrexed; first compound 1 µM) was 0.184, the relative viability ([1]; first compound 0.01 µM) was 0.75 and the relative viability ([1]; first compound 0.03162 µM) was 0.707. The relative viability ([1]; first compound 0.1 µM) was 0.881, the relative viability ([1]; first compound 0.3162 µM) was 0.806 and the relative viability ([1]; first compound 1 µM) was 0.778. The relative viability (BI-2536 + Phenformin; first compound 0.01 µM) was 0.286, the relative viability (BI-2536 + Phenformin; first compound 0.03162 µM) was 0.233 and the relative viability (BI-2536 + Phenformin; first compound 0.1 µM) was 0.177. The relative viability (BI-2536 + Phenformin; first compound 0.3162 µM) was 0.192 and the relative viability (BI-2536 + Phenformin; first compound 1 µM) was 0.175.
